Values after ≈ are worked out from the molar mass of the structure shown. “Also recorded” adds a separate entry of the source. Like-named read-outs stand apart in the source and are kept apart here.

One data set addresses wild-type PyrG (Mycobacterium tuberculosis, UniProt P9WHK7). Format: biochemical, M. tuberculosis. On the set-up: % inhibition of wild-type PyrG: dose or concentration left out as unconfirmed.
Data set [1] concerns the target T1, EthA (Mycobacterium tuberculosis, UniProt P9WNF9). Conditions: cited from earlier work; for Km: read-out: Km (EthA substrate).
Data set [2] deals with M. tuberculosis H37Rv. The data set is described as follows: microbe, parasite or virus in culture. Format: cell-based.
In another data set the test system is RAW 264.7. Conditions: at concentrations below 40 μg/ml.
The next data set has as its target PyrG (Mycobacterium tuberculosis, UniProt P9WHK7). The data set is classed as biochemical, M. tuberculosis.
Data set [3] has as its system intracellular M. tuberculosis H37Rv. The data set is described as follows: microbe, parasite or virus in culture. The data set is classed as cell-based. Conditions: Mycobacterium tuberculosis; for IC50: read-out: Intracellular IC50; for IC90: read-out: Intracellular IC90.
The test system of another data set is HepG2. Conditions: HepG2, at concentrations below 40 μg/ml.
Data set [4] deals with T1, EthA. Format: biochemical, M. tuberculosis.
In data set [5] the test system is non-replicating M. tuberculosis ss18b. The data set is described as follows: microbe, parasite or virus in culture. The data set is classed as cell-based. Conditions: Mycobacterium tuberculosis.
For another data set, the system named is Huh7. Conditions: Huh7, at concentrations below 40 μg/ml.
Another data set concerns A549. Conditions: A549, at concentrations below 40 μg/ml.
For data set [6], the system named is M. tuberculosis H37Rv. The data set is classed as cell-based, Mycobacterium tuberculosis.
Another data set concerns M. tuberculosis H37Ra. The data set is described as follows: MIC against M. tuberculosis H37Ra. The data set is classed as cell-based, Mycobacterium tuberculosis.
The mark [7] stands for this setting: Mycobacterium tuberculosis, H37RV, Figure 5, H37Rv, read-out: MIC.
[8] abbreviates: Mycobacterium tuberculosis, H37RV, Table 1, replicating, read-out: H37Rv MIC.
The mark [9] stands for this setting: Mycobacterium tuberculosis, H37RV, Table 2, strain H37Rv, read-out: MIC.
Setting [10] is: Mycobacterium tuberculosis, H37RV, Table S2, H37Rv, read-out: MIC.
The mark [11] stands for this setting: Mycobacterium tuberculosis, H37RV, Table S4, H37Rv, read-out: MIC.

T1 sequence (P9WNF9 whole entry): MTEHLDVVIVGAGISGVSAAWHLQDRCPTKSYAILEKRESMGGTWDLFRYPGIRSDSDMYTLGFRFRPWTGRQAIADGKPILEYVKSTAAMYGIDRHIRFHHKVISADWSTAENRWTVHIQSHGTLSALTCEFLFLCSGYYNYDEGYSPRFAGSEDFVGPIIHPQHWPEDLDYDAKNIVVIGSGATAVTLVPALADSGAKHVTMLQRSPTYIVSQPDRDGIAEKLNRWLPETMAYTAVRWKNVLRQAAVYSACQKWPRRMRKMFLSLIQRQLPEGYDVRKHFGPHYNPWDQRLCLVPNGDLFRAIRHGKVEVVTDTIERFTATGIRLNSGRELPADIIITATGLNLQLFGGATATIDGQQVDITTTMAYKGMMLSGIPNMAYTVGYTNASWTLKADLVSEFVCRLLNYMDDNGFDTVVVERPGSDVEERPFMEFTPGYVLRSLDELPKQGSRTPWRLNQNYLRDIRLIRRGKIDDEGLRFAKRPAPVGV
Chain of wild-type PyrG (P9WHK7 whole entry): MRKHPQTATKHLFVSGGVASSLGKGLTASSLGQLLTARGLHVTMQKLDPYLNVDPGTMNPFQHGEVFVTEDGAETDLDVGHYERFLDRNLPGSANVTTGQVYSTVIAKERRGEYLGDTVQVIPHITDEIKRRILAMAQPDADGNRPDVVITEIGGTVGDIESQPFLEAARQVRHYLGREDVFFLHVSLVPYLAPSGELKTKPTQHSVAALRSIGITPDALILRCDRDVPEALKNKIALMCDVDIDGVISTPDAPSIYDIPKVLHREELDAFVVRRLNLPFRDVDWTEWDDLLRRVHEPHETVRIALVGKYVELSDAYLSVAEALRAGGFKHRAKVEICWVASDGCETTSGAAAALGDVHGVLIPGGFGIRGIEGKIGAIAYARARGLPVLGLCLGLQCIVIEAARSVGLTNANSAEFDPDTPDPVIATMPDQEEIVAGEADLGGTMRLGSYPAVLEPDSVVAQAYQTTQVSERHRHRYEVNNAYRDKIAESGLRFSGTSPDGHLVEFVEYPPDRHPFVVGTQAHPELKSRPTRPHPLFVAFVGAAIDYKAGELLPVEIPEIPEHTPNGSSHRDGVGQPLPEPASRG
Chain of PyrG (P9WHK7 whole entry): as above

As to `O=C(CCc1ccccc1)NC(=O)Nc1ccc(N2CCCCC2)cc1` [3-phenyl-N-[(4-piperidin-1-ylphenyl)carbamoyl]propanamide], the “effect on PyrG enzymatic activity” value on wild-type PyrG is recorded as “no effect”.
Regarding `CCc1cc(C(N)=S)ccn1` [ETH, ethionamide, reference compound], the Km on EthA [1] is 340 µM. The compound also showed an MIC against M. tuberculosis H37Rv [2] (Mycobacterium tuberculosis, H37RV) of 1 µg/mL (≈ 6.02 µM).
Consider `Cc1ccc(C(=O)Nc2ccc([N+](=O)[O-])cc2)[s+]1[O-]` (centres unmarked) [M2], for which the “effect on PyrG enzymatic activity” value on wild-type PyrG is given as “inhibit”.
For the compound `O=C(CCc1ccccc1)NC(=S)Nc1ccc(N2CCCCC2)cc1` [compound 7904688, 3-phenyl-N-[(4-piperidin-1-ylphenyl)carbamothioyl]propanamide], the cytotoxicity entry with RAW 264.7, in the data set with HepG2, in the data set on Huh7 and with A549 was “not cytotoxic” in each case. Besides, on PyrG, the “loss of PyrG activity” value was “about 80%”. For the same compound, the IC50 in data set [3] came out at 0.175 µg/mL (≈ 0.476 µM); in data set [5], 2.5 µg/mL (≈ 6.8 µM). Also, the IC90 in data set [3] worked out at 0.625 µg/mL (≈ 1.7 µM); in data set [5], 20 µg/mL (≈ 54.4 µM). At wild-type PyrG, the “effect on wild-type PyrG” value is “ineffective”. On EthA [4], the “higher affinity for EthA than ETH” value is given as roughly 10 fold. Further, the MIC with M. tuberculosis H37Rv [2] (setting [7]), with M. tuberculosis H37Rv [2] (setting [8]) and in the data set with M. tuberculosis H37Rv [2] (setting [9]) was 0.5 µg/mL (≈ 1.36 µM) in each case.
Consider `Cc1ccc(C(=O)Nc2ccc([N+](=O)[O-])cc2)s1` [compound 7947882, 5-methyl-N-(4-nitrophenyl)thiophene-2-carboxamide], for which the melting point is 178 to 180 °C. The “abundance of nucleotide intermediates” value in the data set on M. tuberculosis H37Rv [6] is listed as “substantial increase”. Further, in the data set on RAW 264.7, the cytotoxicity result was “not cytotoxic”. Further, at PyrG, the “time in which PyrG lost full activity” value was no more than 4 h. For the same compound, in data set [3], the IC50 was 0.625 µg/mL (≈ 2.38 µM) and the IC90 turned out to be 1.25 µg/mL (≈ 4.77 µM). The “effect on wild-type PyrG” value on wild-type PyrG is reported as “ineffective”. The cytotoxicity entry in the data set with HepG2 is recorded as “not cytotoxic”. Moreover, the “higher affinity for EthA than ETH” value on EthA [4] is reported as roughly 10 fold. Also, in data set [5], the IC50 was 2.5 µg/mL (≈ 9.53 µM) and the IC90 was 10 µg/mL (≈ 38.1 µM). Also, the cytotoxicity entry with Huh7 was “not cytotoxic”. The MIC with M. tuberculosis H37Rv [2] (setting [7]) stood at 0.5 µg/mL (≈ 1.91 µM). Further, the MIC with M. tuberculosis H37Rv [2] (setting [8]) is 0.5 µg/mL (≈ 1.91 µM). Also, the MIC in the data set on M. tuberculosis H37Rv [2] (setting [9]) was determined as 0.5 µg/mL (≈ 1.91 µM). Besides, the MIC with M. tuberculosis H37Rv [2] (setting [10]) was determined as 0.5 µg/mL (≈ 1.91 µM). In addition, in the data set on M. tuberculosis H37Rv [2] (setting [11]), the MIC was 0.5 µg/mL (≈ 1.91 µM). Besides, the cytotoxicity entry with A549 was “not cytotoxic”.
`Cc1ccc(C(=O)O)s1` [compound 11326028, 5-methylthiophene-2-carboxylic acid]: the MIC was 0.128 µg/mL (≈ 0.9 µM) in the data set with M. tuberculosis H37Rv [2] (Figure 5, H37Rv); 0.125 µg/mL (≈ 0.879 µM) in the data set on M. tuberculosis H37Rv [2] (setting [7]); 0.128 µg/mL (≈ 0.9 µM) with M. tuberculosis H37Rv [2] (setting [11]).
With `COc1ccc(NC(=O)c2cc([N+](=O)[O-])c(C)s2)cc1OC` [compound 11326054], the melting point lay in the range of 200 to 202 °C. For the same compound, the “kcat (compound as EthA substrate)” value on EthA [4] worked out at 0.0163 ± 0.0005 s⁻¹. In the data set on M. tuberculosis H37Rv [2] (setting [7]), the MIC is 0.25 µg/mL (≈ 0.776 µM). The MIC in the data set with M. tuberculosis H37Rv [2] (setting [11]) amounted to 0.25 µg/mL (≈ 0.776 µM).
For the compound `CC1=CC=C(C(=O)Nc2ccc([N+](=O)[O-])cc2)S1(=O)=O` [compound 11426026], the MIC against M. tuberculosis H37Ra came out at 4 µg/mL (≈ 13.6 µM); in the data set on M. tuberculosis H37Rv [2] (setting [10]), 1 µg/mL (≈ 3.4 µM); with M. tuberculosis H37Rv [2] (Mycobacterium tuberculosis, H37RV, Table S5, read-out: H37Rv MIC), 1 µg/mL (≈ 3.4 µM). At wild-type PyrG, the “% inhibition of wild-type PyrG” value is 83.6 ± 3.8%. Moreover, the “effect on PyrG enzymatic activity” value on wild-type PyrG is “inhibit; also recorded: higher degree of inhibition”.
Turning to `CC(=O)Cc1ccccc1` [phenylacetone], the Km at EthA [1] (comparison values, ref Fraaije et al., 2004) is 60 µM. Further, the “kcat (EthA substrate)” value on EthA [1] (ref Fraaije et al., 2004) was 0.027 s⁻¹.

The values above are taken from article PMC4521081, “Thiophenecarboxamide Derivatives Activated by EthA Kill Mycobacterium tuberculosis by Inhibiting the CTP Synthetase PyrG” (Chemistry & Biology, 2015).
